Measurements: patent US9006459B2, “Fluorescent markers and use thereof for labeling specific protein targets” (University of Ottawa, priority 2010, dated 2015)

How the values were obtained:
[1] = Photophysical properties (absorbance/excitation and fluorescence emission maxima, fluorescence intensity); format: physicochemical; conditions: for initial fluorescence intensity: before reaction with MPA
Experimental: (§1) Spectroscopic characterization of fluorogen 5 included absorbance and fluorescence emission maxima as well as the fluorescence enhancement (FE) ratio. The spectroscopic characteristics were evaluated in two solvent systems (DMSO and HEPES (pH 7.4)/5% DMSO). The FE ratio determination was carried out by reacting 5 with excess mercaptopropionic acid (MPA) and then dividing the final fluorescence by the initial fluorescence intensity, at a specific fluorogen concentration.
(§2) Absorbance spectra were recorded at 25° C., with a Cary-100 spectrometer. Emission spectra and fluorescence intensity measurements were recorded at 25° C. with a Cary Eclipse fluorometer. Excitation and emission slits were fixed at 5 nm

[2] = Fluorescence enhancement (FE) ratio upon reaction with excess MPA; format: physicochemical; conditions: for FE (fluorescence enhancement ratio): HEPES (pH 7.4)/DMSO 5%, final divided by initial fluorescence intensity
Experimental: as §1
Determination of Fluorescence Enhancement Ratios
as §2
3-Mercaptopropionic acid (50 eq) was added to a 1 to 4 mM DMSO solution of fluorogen. The resulting mixture was stirred at 25° C., in the dark for 18 hours after which fluorescence intensities of a dilution in HEPES buffer (pH 7.4) were recorded. Final fluorescence intensity was then divided by the initial florescence intensity at the same fluorogen concentration leading to the fluorescence enhancement ratio for the fluorogen.

| λem MPA adduct ([1]; di-MPA adduct in HEPES/DMSO 5%) | λex MPA adduct ([1]; di-MPA adduct in HEPES/DMSO 5%) | λem ([1]; fluorogen in HEPES/DMSO 5%) | λex ([1]; fluorogen in HEPES/DMSO 5%) | initial fluorescence intensity ([1]; aqueous media (HEPES/5% DMSO)) | λem MPA adduct ([1]; di-MPA adduct in DMSO) | λex MPA adduct ([1]; di-MPA adduct in DMSO) | λem ([1]; fluorogen in DMSO) | λex ([1]; fluorogen in DMSO) | initial fluorescence intensity ([1]; pure DMSO) | melting point | Molecule | FE (fluorescence enhancement ratio) [2] | fluorescence intensity increase upon reaction with MPA ([2]; pure DMSO) |
| --- | --- | --- | --- | --- | --- | --- | --- | --- | --- | --- | --- | --- | --- |
| 404 nm | 347 nm | 404 nm | 347 nm | – | – | – | – | – | – | – | COc1ccc2cc(C(=O)NCc3cc(N4C(=O)C=C(C)C4=O)cc(N4C(=O)C=C(C)C4=O)c3)c(=O)oc2c1 [Fluorogen 11, 7-Methoxy-3-(3,5-di-(3-methylmaleimido)benzyl)aminocarbonyl coumarin] | 6.4 | – |
| – | – | – | – | – | – | – | – | – | – | – | 8-(2′,6′-di-((4″-(3-methylmaleimido)phenyl)ethynyl))-4,4-difluoro-4-bora-3a,4a-diaza-s-indacene [Fluorogen 17] | 6.4 | – |
| 520 nm | 325 nm | 520 nm | 325 nm | at the level of the background noise | 540 nm | 350 nm | 540 nm | 345 nm | approximately 2 | 230 °C | CC1=CC(=O)N(c2cc(NS(=O)(=O)c3cccc4c(N(C)C)cccc34)cc(N3C(=O)C=C(C)C3=O)c2)C1=O [Fluorogen 5, N-Dansyl-3,5-di-(3-methylmaleimido)aniline] | – | over 300 fold |

| Molecule | λem MPA adduct ([1]; di-MPA adduct in HEPES/DMSO 5%) | λex MPA adduct ([1]; di-MPA adduct in HEPES/DMSO 5%) | λem ([1]; fluorogen in HEPES/DMSO 5%) | λex ([1]; fluorogen in HEPES/DMSO 5%) | initial fluorescence intensity ([1]; aqueous media (HEPES/5% DMSO)) | λem MPA adduct ([1]; di-MPA adduct in DMSO) | λex MPA adduct ([1]; di-MPA adduct in DMSO) | λem ([1]; fluorogen in DMSO) | λex ([1]; fluorogen in DMSO) | initial fluorescence intensity ([1]; pure DMSO) | melting point | FE (fluorescence enhancement ratio) [2] | fluorescence intensity increase upon reaction with MPA ([2]; pure DMSO) |
| --- | --- | --- | --- | --- | --- | --- | --- | --- | --- | --- | --- | --- | --- |
| 8-(3′,5′-di-(3-methylmaleimido)-phenyl-4,4-difluoro-4-bora-3a,4a-diaza-s-indacene [Fluorogen 13] | 514 nm | 510 nm | 514 nm | 510 nm | – | – | – | – | – | – | – | 3.5 | – |
